The source made the active and inactive calls. The calls are words filed in the database; no cut-off is given here.

This note sets out measurements from ChEMBL document CHEMBL1153531, “1- or 3-(3-Amino-2-hydroxy-1-phenyl propyl)-1,3-dihydro-2H-benzimidazol-2-ones: potent, selective, and orally efficacious norepinephrine reuptake inhibitors” (J Med Chem, 2009).

Series [1] concerns the target Sodium-dependent dopamine transporter (Homo sapiens) (UniProt Q01959). Kind of series: Inhibition of [3H]WIN-35428 binding to human recombinant DAT expressed in CHO cells by scintillation counting. The series is classed as cell-based.
Series [2] concerns the target Sodium-dependent serotonin transporter (Homo sapiens) (UniProt P31645). Kind of series: Inhibition of [3H]hydroxytryptamine creatinine sulfate uptake at human SERT expressed in human JAR cells at 1 uM. The series is classed as cell-based.
In series [3] the target is Sodium-dependent dopamine transporter (Homo sapiens) (UniProt Q01959). Kind of series: Inhibition of [3H]WIN-35428 binding to human recombinant DAT expressed in CHO cells at 10 uM by scintillation counting. The series is classed as cell-based.
Sodium-dependent dopamine transporter (Homo sapiens), sequence (Q01959 whole entry): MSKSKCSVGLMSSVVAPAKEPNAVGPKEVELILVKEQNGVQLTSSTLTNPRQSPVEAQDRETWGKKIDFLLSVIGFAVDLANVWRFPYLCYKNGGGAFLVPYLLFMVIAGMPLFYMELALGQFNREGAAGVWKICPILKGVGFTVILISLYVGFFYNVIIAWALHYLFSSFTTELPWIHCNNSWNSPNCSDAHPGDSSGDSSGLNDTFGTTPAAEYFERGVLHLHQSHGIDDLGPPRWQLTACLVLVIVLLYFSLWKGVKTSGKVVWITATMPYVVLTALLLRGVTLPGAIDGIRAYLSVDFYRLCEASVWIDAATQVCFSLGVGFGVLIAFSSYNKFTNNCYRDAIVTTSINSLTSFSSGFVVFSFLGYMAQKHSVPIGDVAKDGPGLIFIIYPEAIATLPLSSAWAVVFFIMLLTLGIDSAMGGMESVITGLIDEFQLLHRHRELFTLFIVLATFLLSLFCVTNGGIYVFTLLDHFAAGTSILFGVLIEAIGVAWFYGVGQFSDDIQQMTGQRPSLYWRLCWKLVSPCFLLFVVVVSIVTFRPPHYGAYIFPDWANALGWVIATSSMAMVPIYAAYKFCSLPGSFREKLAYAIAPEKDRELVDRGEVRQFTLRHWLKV
For series [4], the target named is T1, Sodium-dependent noradrenaline transporter (Homo sapiens, UniProt P23975).
T1 sequence (P23975 whole entry): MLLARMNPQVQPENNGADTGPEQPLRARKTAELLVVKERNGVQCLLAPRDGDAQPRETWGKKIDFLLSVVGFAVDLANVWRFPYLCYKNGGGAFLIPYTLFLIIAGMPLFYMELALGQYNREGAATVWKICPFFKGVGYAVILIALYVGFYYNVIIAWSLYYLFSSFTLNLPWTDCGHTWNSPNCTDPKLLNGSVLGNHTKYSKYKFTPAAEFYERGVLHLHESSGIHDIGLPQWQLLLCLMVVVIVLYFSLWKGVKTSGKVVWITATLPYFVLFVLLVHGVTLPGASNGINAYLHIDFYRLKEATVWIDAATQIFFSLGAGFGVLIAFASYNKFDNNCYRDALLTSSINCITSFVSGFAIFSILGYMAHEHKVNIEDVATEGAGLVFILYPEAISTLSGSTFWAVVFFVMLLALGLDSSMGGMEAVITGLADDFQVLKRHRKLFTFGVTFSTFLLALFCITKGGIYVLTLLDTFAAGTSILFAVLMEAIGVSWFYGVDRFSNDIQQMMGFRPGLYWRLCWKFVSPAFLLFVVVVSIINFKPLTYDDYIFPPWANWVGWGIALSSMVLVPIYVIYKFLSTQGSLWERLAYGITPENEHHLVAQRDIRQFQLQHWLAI
The target in series [5] is T1, Sodium-dependent noradrenaline transporter. As to the kind of experiment: biochemical.
The target in series [6] is Sodium-dependent serotonin transporter (Homo sapiens) (UniProt P31645). Particulars: JAR.
Sodium-dependent serotonin transporter (Homo sapiens), sequence (P31645 whole entry, looked up): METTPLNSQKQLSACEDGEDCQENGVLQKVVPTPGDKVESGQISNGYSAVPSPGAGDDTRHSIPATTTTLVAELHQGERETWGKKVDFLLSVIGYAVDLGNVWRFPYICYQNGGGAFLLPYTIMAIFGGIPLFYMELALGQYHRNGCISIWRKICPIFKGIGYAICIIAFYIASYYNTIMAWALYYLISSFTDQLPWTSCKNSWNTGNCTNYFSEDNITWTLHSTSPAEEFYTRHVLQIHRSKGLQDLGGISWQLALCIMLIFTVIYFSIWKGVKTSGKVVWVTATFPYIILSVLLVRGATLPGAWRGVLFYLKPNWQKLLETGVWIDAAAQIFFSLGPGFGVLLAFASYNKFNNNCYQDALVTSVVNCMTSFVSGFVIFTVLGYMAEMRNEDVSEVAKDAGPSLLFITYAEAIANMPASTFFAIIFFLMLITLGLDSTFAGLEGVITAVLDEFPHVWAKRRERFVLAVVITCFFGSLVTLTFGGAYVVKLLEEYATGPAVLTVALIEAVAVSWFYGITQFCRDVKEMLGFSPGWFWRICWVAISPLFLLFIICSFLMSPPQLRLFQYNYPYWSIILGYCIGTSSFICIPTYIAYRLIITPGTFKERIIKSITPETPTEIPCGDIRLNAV
The species entered for another series is Homo sapiens. Kind of series: Selectivity […] human SERT to IC50 for human NET.
A further series has as its system JAR. As to the kind of experiment: Selectivity for human NET expressed in MDCK-Net6 cells over human SERT expressed in human JAR cells. The series is classed as cell-based.
For another series, the system named is CHO. As to the kind of experiment: Selectivity for human NET expressed in MDCK-Net6 cells over human DAT expressed in CHO cells. The series is classed as cell-based.
The subject of series [7] is Rattus norvegicus. Kind of series: Effect on temperature homeostasis in telemetric ovariectomy-induced thermoregulatory dysfunction Sprague-Dawley rat model assessed as duration of tail skin temperature reduction at 3 mg/kg, po. The series is classed as functional.
Series [8] relates to Rattus norvegicus. As to the kind of experiment: Effect on temperature homeostasis in telemetric ovariectomy-induced thermoregulatory dysfunction Sprague-Dawley rat model assessed as mean reduction in tail skin temperature at 3 mg/kg, po relative to baseline. The series is classed as functional.
In series [9] the test system is Rattus norvegicus. As to the kind of experiment: Effect on temperature homeostasis in telemetric ovariectomy-induced thermoregulatory dysfunction Sprague-Dawley rat model assessed as maximum reduction in tail skin temperature at 3 mg/kg, po relative to baseline. The series is classed as functional.
Series [10] concerns Rattus norvegicus. As to the kind of experiment: Analgesic activity in Sprague-Dawley rat acute analgesia model assessed as increase nocifensive latency at 10 mg/kg, po after 1 hr by hot plate assay. The series is classed as functional, organism-based. Set-up: dose 10 mg/kg. A general note: Thermal pain tests record how soon the animal reacts.
Series [11] concerns Rattus norvegicus. As to the kind of experiment: Analgesic activity in Sprague-Dawley rat acute analgesia model assessed as increase in nocifensive latency at 10 mg/kg, po after 3 hrs by hot plate assay. More on the design: dose 10 mg/kg. The series is classed as functional, organism-based.
Series [12] relates to Rattus norvegicus. Kind of series: Analgesic activity in Sprague-Dawley rat acute analgesia model assessed as increase in nocifensive latency at 10 mg/kg, po after 5 hrs by hot plate assay. The series is classed as functional, organism-based. More on the design: dose 10 mg/kg.
For series [13], the system named is Rattus norvegicus. As to the kind of experiment: Antihyperalgesic in po dosed Sprague-Dawley rat spinal nerve ligation model of neuropathic pain assessed as complete hind paw withdrawal after 3 to 4 weeks post surgery by paw pressure technique analysis. The series is classed as functional, organism-based.
The nature of series [14]: Plasma clearance in Sprague-Dawley rat at 5 mg/kg, iv. The series is classed as ADME, organism-based. More on the design: dose 5 mg/kg, route intravenous.
Series [15] in a line: Cmax in Sprague-Dawley rat 10 mg/kg, po within 2 hrs. More on the design: dose 10 mg/kg, route oral. The series is classed as ADME, organism-based. Particulars: in vivo.
The nature of series [16]: Tmax in Sprague-Dawley rat at 10 mg/kg, po. The series is classed as ADME, organism-based. Conditions: in vivo. Set-up: dose 10 mg/kg, route oral.
Series [17] is described as follows: Terminal half life in Sprague-Dawley rat at 5 mg/kg, iv. Conditions: in vivo, read-out: beta t1/2 (converted). The series is classed as ADME, organism-based. Set-up: dose 5 mg/kg, route intravenous.
Series [18] in a line: Terminal half life in Sprague-Dawley rat at 10 mg/kg, po. The series is classed as ADME, organism-based. Set-up: dose 10 mg/kg, route oral. Conditions: in vivo, read-out: beta t1/2 (converted).
Series [19] is described as follows: AUC (0 to infinity) in Sprague-Dawley rat at 5 mg/kg, iv. Particulars: plasma. The series is classed as ADME, organism-based. More on the design: time infinity, dose 5 mg/kg, route intravenous.
The nature of series [20]: AUC (0 to infinity) in Sprague-Dawley rat at 10 mg/kg, po. The series is classed as ADME, organism-based. Conditions: plasma. More on the design: time infinity, dose 10 mg/kg, route oral.
The nature of series [21]: Oral bioavailability in Sprague-Dawley rat at 10 mg/kg. The series is classed as ADME, organism-based. Particulars: in vivo.
Series [22] has as its target Sodium-dependent dopamine transporter (Homo sapiens) (UniProt Q01959). As to the kind of experiment: Inhibition of [3H]WIN-35428 binding to human recombinant DAT expressed in CHO cells at 1 uM by scintillation counting. The series is classed as cell-based.

Take `CNCC[C@@H](Oc1ccccc1C)c1ccccc1`: in series [1], the IC5 is 48 nM.

As usually defined, the inhibition is the relative decrease from the control value, in per cent. A word on the IC50: it is the concentration that gives 50% inhibition. For `CCn1c(=O)n([C@@H](c2ccccc2)[C@H](O)CNC)c2c(F)cccc21`, the inhibition is -5% in [2] and 29% in series [3]. Also, the half-maximal inhibitory concentration (IC50) was found to be 13.8 nM in series [4] and 11.4 nM in series [5].

On to `CNC[C@@H](O)[C@H](c1ccccc1)n1ccc2ccccc21`, for which the IC5 in [1] is 358 nM; in series [6], 0.358 µM.

`CCn1c(=O)n([C@@H](c2cccc(F)c2)[C@H](O)CNC)c2ccccc21`: the inhibition in series [2] is 15%; in series [3] it was -2%. Also, the Selectivity ratio in the series listed under Homo sapiens is above 900; in the series with JAR, above 500; in the series with CHO it was above 500. Also, the Time in the series with Rattus norvegicus [7] came to 5 h. The Activity with Rattus norvegicus [8] is 2.03 °C; in the series on Rattus norvegicus [9], 2.62 °C; in the series with Rattus norvegicus [13] it was “Dose-dependent effect”. Moreover, the outcome with Rattus norvegicus [10], in the series with Rattus norvegicus [11] and in the series with Rattus norvegicus [12] was Active. Further, the IC50 in [4] came out at 7.4 nM; in series [5], 6.4 nM. In [6], this compound displayed an IC5 above 10 µM.

As usually defined, the clearance is a measure of how efficiently the substance is removed, as volume per time. A low value points to inefficient removal. One may read the Cmax as the highest concentration seen after dosing. In general, Tmax refers to the time at which the peak concentration occurs. The term AUC(0-inf) denotes the area under the concentration-time curve extrapolated to infinity. Low readings indicate less exposure, high ones more exposure. What is called bioavailability is dose-corrected exposure relative to a reference, in per cent. Read a low bioavailability as poor availability. As for `CNC[C@@H](O)[C@H](c1cccc(F)c1)n1c(=O)n(C(C)C)c2cccc(F)c21`, the inhibition was 19% in series [2] and 27% in [3]. Moreover, the values for the IC5 in series [1] and in series [6] were 6320 nM and 6.32 µM, respectively. Besides, the Selectivity ratio is above 900 in the series filed under Homo sapiens, above 500 with JAR and above 500 with CHO. The Time in the series on Rattus norvegicus [7] amounted to 6 h. Also, the figures for the Activity with Rattus norvegicus [8] and in the series with Rattus norvegicus [9] were 2.44 °C and 3.73 °C, respectively. The same compound came in with a clearance in series [14] of 24 mL/min/kg. The Cmax in series [15] was found to be 1120 ng/mL. In addition, the Tmax in series [16] was determined as 30 min. Further, the half-life is 138 min in series [17] and 234 min in [18]. The results for the AUC(0-inf) in series [19] and in [20] were 3650 ng·h/mL and 7080 ng·h/mL, respectively. In series [21], the bioavailability worked out at 97%. Besides, the IC50 was 6.9 nM in series [4] and 4.1 nM in series [5].

For `CCn1c(=O)n([C@@H](c2cccc(F)c2)[C@H](O)CNC)c2c(F)cccc21`, the inhibition turned out to be 8% in series [2] and 11% in series [3]. Moreover, the Selectivity ratio in the series filed under Homo sapiens was above 900; in the series with JAR, above 500; with CHO, above 500. The values for the IC50 in [4] and in series [5] were 10.4 nM and 4.1 nM, respectively. The compound also registered an IC5 in [6] above 10 µM.

Take `CCn1c(=O)n([C@@H](c2ccccc2)[C@H](O)CNC)c2ccccc21`: in [2], the inhibition was found to be 4%. In addition, the Time with Rattus norvegicus [7] was 3.5 h. Further, the Activity amounted to 1.57 °C with Rattus norvegicus [8] and 1.82 °C with Rattus norvegicus [9]. The clearance in [14] was 54 mL/min/kg. Further, in [15], the Cmax amounted to 306 ng/mL. In addition, the Tmax in series [16] is 66 min. For the same compound, the half-life in series [17] is 216 min; in series [18], 204 min. Further, the total exposure AUC(0-inf) in series [19] was 1640 ng·h/mL; in [20], 1840 ng·h/mL. In addition, the bioavailability in series [21] stood at 56%. Further, the IC50 in series [4] was found to be 17.5 nM; in series [5], 16.8 nM.

`CNC[C@@H](O)[C@H](c1ccccc1)n1c(=O)n(C(C)C)c2cccc(F)c21`: the inhibition in [2] amounted to 6%; in series [3] it was 12%. Moreover, the Selectivity ratio is above 900 in the series filed under Homo sapiens, above 500 with JAR and above 500 in the series on CHO. Further, the Time in the series on Rattus norvegicus [7] came to 1 h. Further, the Activity in the series on Rattus norvegicus [8] stood at 1.61 °C; in the series on Rattus norvegicus [9] it was 2.09 °C. Moreover, in series [4], the IC50 was determined as 7.8 nM. In [6], this compound gave an IC5 above 10 µM.

Regarding `CNC[C@@H](O)[C@H](c1cccc(F)c1)n1c(=O)n(-c2ccccc2)c2cccc(F)c21`, the inhibition in [22] came out at 11%. This compound came in with an IC50 in [4] of 91.9 nM.

As to `CNC[C@@H](O)[C@H](c1ccccc1)n1c(=O)n(C2CCC2)c2ccccc21`, the inhibition turned out to be 5% in series [2] and 6% in series [3]. Moreover, the figures for the IC50 in [4] and in series [5] were 42.5 nM and 90 nM, respectively.

Regarding `CCCn1c(=O)n([C@@H](c2ccccc2)[C@H](O)CNC)c2ccccc21`, the inhibition came out at 15% in series [2] and 6% in series [3]. This compound registered a half-inhibitory concentration (IC50) in series [4] of 18.6 nM.

Consider `CNC[C@@H](O)[C@H](c1ccccc1)n1c(=O)n(C)c2ccccc21`, for which the results for the inhibition in series [2] and in series [3] were 15% and 14%, respectively. For the same compound, in series [4], the IC50 was 257 nM.

`CCn1c(=O)n([C@@H](c2ccccc2)[C@H](O)CNC)c2cc(F)ccc21`: the inhibition in [2] came to 32%; in series [3] it was 30%. Further, the midpoint of inhibition in [4], the IC50, lay at 36.7 nM.

On to `CCOc1ccccc1O[C@@H](c1ccccc1)[C@@H]1CNCCO1`, for which, in [1], the IC5 is above 10000 nM.

For `CCCn1c(=O)n([C@@H](c2ccccc2)[C@H](O)CNC)c2cc(F)ccc21`, the inhibition in series [2] worked out at 44%; in series [3] it was 16%. This compound also gave a concentration for half-maximal inhibition (IC50) in series [4] of 39.4 nM. Further, in series [6], the IC5 worked out at 8.32 µM.

For the compound `CNC[C@@H](O)[C@H](c1ccccc1)n1c(=O)n(C2CCCC2)c2ccccc21`, the inhibition in [2] is 46%; in series [3] it was 20%. In addition, the IC50 in [4] was found to be 66.7 nM. The IC5 in [6] is 2.37 µM.

On to `CNC[C@@H](O)[C@H](c1ccccc1)n1c(=O)n(C(C)(C)C)c2ccccc21`, for which the inhibition in series [2] is 1%; in [22], 3%. Moreover, the IC50 in series [4] is 56 nM.

Regarding `CNC[C@@H](O)[C@H](c1ccccc1)n1c(=O)n(C(C)C)c2ccccc21`, the inhibition in series [2] and in series [3] was 19% each time. Besides, the IC50 in series [4] is 13.4 nM; in series [5], 10.8 nM.

The compound `CCNC[C@@H](O)[C@H](c1ccccc1)n1c(=O)n(C(C)C)c2ccc(F)cc21` showed an IC50 in series [4] above 1000 nM.
